pIC50: −log10 of the molar value.
Tests used:
[1] = test system: human peripheral blood mononuclear cells (PBMCs); experiment: CBE challenge in human PBMCs; assay type: cell-based
Protocol: PBMCs were obtained from blood samples (Stem Cell Technologies, catalog number 70025, lot number 2105417005, Donor ID CE0006419) using standard procedures. 25,000 cells were added to individual wells of a multi-well plate and allowed to acclimate for 24 hours before they were treated with 100 μM CBE for 24 hours. Culture medium was removed and replaced with fresh medium (without CBE), and lipids were extracted from the cells at time intervals of 0, 2, 4, 8, 16 and 24 hours. GL1 and lyso-GL1 levels were measured, as were levels of phosphatidylcholine (PC).

[2] = test system: GL1 and lyso-GL1 accumulation; experiment: CBE timecourse of lipid flux in Gba D409V/D409V, D409V/+ and +/+ mice; assay type: in vivo; conditions: single intraperitoneal CBE injection
Text: For each plot, the top line (with squares) is the homozygous D409V mice, the middle line (with triangles pointing upwards) is the heterozygous mice, and the bottom line (triangles pointing downwards) is the wild-type mice. N=10 per group. Data are shown as mean±SEM.
It was investigated whether substrate accumulation could allow for discrimination between mice harboring different copy numbers of mutations in GBA1. Three mouse models were investigated: Gba^D409V/D409V, Gba^D409V/+, and Gba^+/+, which are homozygous for a loss of function D409V mutation in GBA1, heterozygous for that mutation, or WT for GBA1, respectively. The GCase substrate, glucosylceramide (GL1) was investigated in addition to glucosylsphingosine (lyso-GL1). Mice were administered a single dose of CBE and sacrificed after 3, 6, 24, 48, or 72 hours. Substrate accumulation and dissipation was measured over time.

GCase [3] = target: T1, GCase (Homo sapiens, UniProt P04062); conditions: read-out: IC50 against GCase; cited from earlier work
T1 sequence (P04062 40-536): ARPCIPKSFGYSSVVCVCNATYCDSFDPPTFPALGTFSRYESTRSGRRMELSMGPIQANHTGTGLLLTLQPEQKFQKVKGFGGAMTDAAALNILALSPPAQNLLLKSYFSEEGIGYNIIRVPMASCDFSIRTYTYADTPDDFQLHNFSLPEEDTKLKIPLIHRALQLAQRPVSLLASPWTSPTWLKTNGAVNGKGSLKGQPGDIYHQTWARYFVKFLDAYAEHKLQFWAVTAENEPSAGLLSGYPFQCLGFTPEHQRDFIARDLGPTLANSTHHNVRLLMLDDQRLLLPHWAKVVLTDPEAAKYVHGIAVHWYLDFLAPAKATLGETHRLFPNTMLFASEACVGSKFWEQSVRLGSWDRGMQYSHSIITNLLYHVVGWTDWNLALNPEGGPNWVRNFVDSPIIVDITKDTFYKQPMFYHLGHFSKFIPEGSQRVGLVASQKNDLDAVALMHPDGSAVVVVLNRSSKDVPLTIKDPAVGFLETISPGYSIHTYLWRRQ

α-glucosidases = conditions: range given jointly for three glycosidases; read-out: IC50 against α-glucosidases; cited from earlier work
Lyso-GL1 levels = experiment: CBE dose titration in WT mice: lyso-GL1 accumulation; assay type: in vivo; conditions: cortex, liver and plasma, 24 hours after CBE
Protocol: Lyso-GL1 was detected in cortex (FIG. 2A), liver (FIG. 2B), and plasma (FIG. 2C). N=4 per group (8 for untreated and 100 mg/kg plasma). Results for lyso-GL1 are μg/g wet tissue. […] Error bars show SEM.
A dose response to CBE was performed in wild-type (WT) mice (Charles River Laboratories or Jackson Labs). Concentrations between 0.3 mg/kg and 100 mg/kg of CBE were investigated. GCase activity remaining 24 hours after administration of CBE was measured using a 4-methylumbelliferone (4MU) hydrolysis assay. Briefly, cell lysates from different sample types were diluted into 0.1 M sodium acetate buffer, pH 4.5 containing 10 mM of synthetic substrate 4-methylumbelliferyl-β-D-glucopyranoside and incubated at 37° C. for 1 hour. The reaction was terminated by adding 0.5 volume of 1 M glycine buffer, pH 12.5. The fluorescence of the reaction was measured using a Spectramax fluorimeter (Ex365/Em445; Molecular Devices, Sunnyvale, CA, USA). A standard curve was generated using Cerezyme® (imiglucerase).

β-glucuronidase = target: T2, β-glucuronidase (Homo sapiens, UniProt P08236); conditions: range given jointly for three glycosidases; read-out: IC50 against β-glucuronidase; cited from earlier work
T2 sequence (P08236 23-651): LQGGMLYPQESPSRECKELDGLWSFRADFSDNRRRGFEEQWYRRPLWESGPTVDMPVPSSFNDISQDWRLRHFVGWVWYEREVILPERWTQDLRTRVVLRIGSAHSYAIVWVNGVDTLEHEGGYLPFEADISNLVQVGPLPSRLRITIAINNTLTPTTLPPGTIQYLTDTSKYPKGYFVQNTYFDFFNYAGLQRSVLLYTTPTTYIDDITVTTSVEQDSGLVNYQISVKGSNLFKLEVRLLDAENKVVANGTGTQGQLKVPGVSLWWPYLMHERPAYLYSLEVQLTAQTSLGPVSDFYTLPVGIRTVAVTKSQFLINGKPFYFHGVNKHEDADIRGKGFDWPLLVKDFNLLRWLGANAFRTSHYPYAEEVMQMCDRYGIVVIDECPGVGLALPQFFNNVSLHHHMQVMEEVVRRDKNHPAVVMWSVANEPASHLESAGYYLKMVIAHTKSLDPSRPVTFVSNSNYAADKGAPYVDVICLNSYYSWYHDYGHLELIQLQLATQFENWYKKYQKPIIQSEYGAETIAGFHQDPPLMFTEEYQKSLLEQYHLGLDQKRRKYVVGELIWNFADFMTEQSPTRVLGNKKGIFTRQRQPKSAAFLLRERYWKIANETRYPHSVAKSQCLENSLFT

[4] = target: T3, non-lysosomal glucosylceramidase (Homo sapiens, UniProt Q9HCG7); conditions: range given jointly for three glycosidases; read-out: IC50 against non-lysosomal glucosylceramidase; cited from earlier work
T3 sequence (Q9HCG7 1-927): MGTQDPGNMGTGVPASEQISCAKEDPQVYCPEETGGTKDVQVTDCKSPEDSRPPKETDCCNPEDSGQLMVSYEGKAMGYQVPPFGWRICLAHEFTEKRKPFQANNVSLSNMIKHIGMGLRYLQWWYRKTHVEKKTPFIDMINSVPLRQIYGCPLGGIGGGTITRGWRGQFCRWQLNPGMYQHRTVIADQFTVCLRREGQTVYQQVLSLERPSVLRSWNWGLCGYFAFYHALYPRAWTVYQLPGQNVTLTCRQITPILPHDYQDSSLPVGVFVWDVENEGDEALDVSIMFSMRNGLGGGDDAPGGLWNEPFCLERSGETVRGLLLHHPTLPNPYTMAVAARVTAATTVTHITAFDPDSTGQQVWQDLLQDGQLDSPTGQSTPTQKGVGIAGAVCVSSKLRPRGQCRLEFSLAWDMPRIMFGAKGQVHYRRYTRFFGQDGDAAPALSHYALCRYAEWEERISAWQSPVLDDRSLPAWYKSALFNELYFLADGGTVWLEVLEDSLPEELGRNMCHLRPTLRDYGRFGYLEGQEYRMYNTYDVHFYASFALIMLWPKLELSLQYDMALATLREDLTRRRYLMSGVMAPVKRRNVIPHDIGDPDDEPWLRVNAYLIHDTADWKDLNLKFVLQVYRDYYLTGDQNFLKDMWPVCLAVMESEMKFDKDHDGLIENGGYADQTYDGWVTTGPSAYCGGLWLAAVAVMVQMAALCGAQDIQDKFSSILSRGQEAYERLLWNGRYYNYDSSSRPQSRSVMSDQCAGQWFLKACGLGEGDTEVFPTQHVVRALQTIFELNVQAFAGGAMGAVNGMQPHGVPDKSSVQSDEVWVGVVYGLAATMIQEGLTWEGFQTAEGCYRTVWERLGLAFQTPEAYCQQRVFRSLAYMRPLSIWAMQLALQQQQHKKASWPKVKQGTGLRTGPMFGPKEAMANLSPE

[5] = test system: SHSY-5Y neuroblastoma cells; experiment: Lipid response of SHSY-5Y neuroblastoma cells to CBE incubation; assay type: cell-based, human; conditions: 100 μM CBE for 24 hours
Text: In each case, the lyso-GL1 levels without treatment are very low (left-hand bar, in black). Error bars show SD, and data are presented in relative (arbitrary) units, “AU”, which are normalized for cell number.
First, the response of human SHSY-5Y neuroblastoma cells to CBE was studied. Cells were either used without further changes (wild-type) or were modified to reduce or increase Gba activity (knock-down and over-expressed, respectively). The modification was effected by stable transfection with a plasmid expressing an siRNA targeting GBA (KD) or a plasmid constitutively overexpressing GBA (OE). Human SHSY-5Y neuroblastoma cells (Sigma) were incubated with 100 μM CBE (Toronto Research Chemicals) for 24 hours. Enzyme activity and lipid levels were measured at −24 hours (before CBE incubation), and at 0, 24, and 48 hours after CBE removal. […] A marked increase in enzyme activity was observed between the knock-down and wild-type cells, and between the wild-type and over-expressed cells.

[6] = test system: lyso-GL1 and GL-1 accumulation; experiment: CBE timecourse of lipid flux in wild-type mouse strains; assay type: in vivo; conditions: C57BL/6, BALB/cJ and FVB mice after CBE challenge
Protocol: GSL levels were measured in cortex (FIG. 4A), liver (FIG. 4B), and plasma (FIG. 4C). […] Data are shown as mean±SD.
Three different wild-type mouse strains (C57BL/6J, BALB/cJ, and FVB-Charles River Laboratories or Jackson Labs) were evaluated for GSL accumulation and restoration after CBE challenge. […] The CBE challenge time course was performed in these three different strains, measuring lyso-GL1 and GL-1 accumulation at 24, 48, and 72 hours after administration.

GCase [7] = target: T4, GCase (Mus musculus, UniProt P17439); experiment: CBE dose titration in WT mice: GCase activity (4MU hydrolysis assay); assay type: in vivo; conditions: cortex and liver, 24 hours, 0.3-100 mg/kg CBE
T4 construct: GCase activity remaining 24 hours after administration of CBE was measured; from tissue; host or cells: cortex and liver of wild-type mice (Charles River Laboratories or Jackson Labs)
T4 sequence (P17439 20-515): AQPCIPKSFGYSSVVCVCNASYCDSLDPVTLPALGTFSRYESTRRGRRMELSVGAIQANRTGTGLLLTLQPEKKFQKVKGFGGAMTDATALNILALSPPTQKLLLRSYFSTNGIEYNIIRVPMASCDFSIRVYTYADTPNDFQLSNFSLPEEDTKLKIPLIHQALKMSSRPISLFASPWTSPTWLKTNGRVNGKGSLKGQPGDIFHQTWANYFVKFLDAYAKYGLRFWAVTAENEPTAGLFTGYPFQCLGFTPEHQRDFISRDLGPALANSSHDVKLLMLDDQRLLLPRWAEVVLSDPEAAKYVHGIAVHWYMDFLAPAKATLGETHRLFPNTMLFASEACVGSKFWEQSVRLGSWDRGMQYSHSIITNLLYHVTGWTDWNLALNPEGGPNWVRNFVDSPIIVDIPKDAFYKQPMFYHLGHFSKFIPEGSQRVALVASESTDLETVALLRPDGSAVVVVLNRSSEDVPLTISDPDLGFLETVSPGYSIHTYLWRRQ
Protocol: N=4 per group (8 for untreated and 100 mg/kg plasma). […] Error bars show SEM.

[8] = test system: SHSY-5Y neuroblastoma cells; conditions: wild-type cells

O[C@H]1[C@H](O)[C@@H](O)[C@@H]2O[C@@H]2[C@@H]1O [CBE, conduritol-β epoxide]
increase of GL1 levels after CBE treatment ([1]; 100 μM CBE for 24 hours): about 6 fold | phosphatidylcholine (PC) levels ([1]; 100 μM CBE for 24 hours): largely unaffected | GL1 levels after CBE treatment ([1]; 100 μM CBE for 24 hours, baseline about 2 ng/ml): about 12 ng/ml | lyso-GL1 levels after CBE treatment ([1]; 100 μM CBE for 24 hours, from nearly undetectable levels): about 0.08 ng/ml | time for GL1 and lyso-GL1 levels to normalize after treatment ([1]; normalized to PC levels): 16 h | time of peak substrate accumulation [2]: 24 to 48 h | pIC50 (GCase [3]): ~6.52 | pIC50 (α-glucosidases): 2.70 to 3.70 | Lyso-GL1 levels (Lyso-GL1 levels): increased with increasing CBE dose beyond 30 mg/kg | pIC50 (β-glucuronidase): 2.70 to 3.70 | pIC50 [4]: 2.70 to 3.70 | GL1 and lyso-GL1 accumulation upon CBE treatment ([5]; KD, WT and OE SHSY-5Y cells): inversely proportional to the level of GBA1 expression | total GL1 levels after treatment ([5]; wild-type SHSY-5Y cells): No significant difference | time of peak glycosphingolipid levels [6]: 24 h | GCase activity remaining after administration of CBE (GCase [7]): dose-dependent reduction in enzyme activity

C[C@H](CCC(=O)NCCS(=O)(=O)O)[C@H]1CC[C@H]2[C@@H]3[C@H](O)C[C@@H]4C[C@H](O)CC[C@]4(C)[C@H]3C[C@H](O)[C@]12C [sodium taurocholate]
increase of response (dynamic range) on incubation with sodium taurocholate [8]: ~10 factor
